# Measurements: PubChem BioAssay AID2060898 (Molecular Pharmacology Branch, DTP, NCI, 2025)
# Several values for one entry are separate records, joined by “and”; a condition that tells them apart may be missing. Equal entries are not always repeated.
# Tested on: 616215-338-R-J1-PDC complex spheroid viability
# Assay: Anticancer human tumor 616215-338-R-J1-PDC patient-derived colon adenocarcinoma cell line growth inhibition [RAS]
# Conditions: for viability, T/C: stronger effect = lower value
# Excerpt: RAS pathway inhibitors in Combinations in Complex Spheroids
# A high-throughput screen of multi-cell type tumor spheroids was designed to identify active combinations of RAS pathway inhibitors and targeted small molecules. Complex spheroids include a stromal component modeled by human endothelial cells (HUVEC) and fibroblasts modeled by human mesenchymal stem cells (MSCs). The concentration ranges selected for each drug and investigational agent were based upon clinically achievable concentrations if the clinical Cmax of the agent was known.
# Compounds. The drugs and investigational agents: abemaciclib (NSC768073), cobimetinib (NSC768068), divarasib (GDC6063, NSC841802), docetaxel (NSC628503), GDC-1971 (RLY-1971, NSC841576), gemcitabine (NSC613327), inavolisib (NSC800729), ipatasertib (NSC767898), KB-0742 (NSC834161), MRTX-1133 (NSC836407), osimertinib (NSC779217), RMC-4630 (NSC839698), RMC-6236 (NSC851965), RMC-6291 (NSC852671), Ro-3306 (NSC812927), sapanisertib (NSC764658), SN-38 (NSC673596), staurosporine (NSC755774), SY5609 (NSC837396), and tovorafenib (DAY101, NSC766906), were obtained from the National Cancer Institute (NCI) Developmental Therapeutics Program Chemical Repository. The FDA-approved anticancer drug set is available from the NCI Developmental Therapeutics Program. […] The stock solutions were prepared in dimethyl sulfoxide (DMSO, Sigma-Aldrich, St. Louis, MO, cat. D2650) at 800-fold the tested concentration and stored at -70 degrees C prior to their use. All drugs and investigational agents were tested over a range starting from a high concentration at or near the clinical Cmax and decreasing in half-log increments. If the clinical Cmax for an agent had not been determined, the highest concentration tested was 10 microM.
# Cell Culture. All cells were maintained in an incubator at 37 degrees C and 5% CO2 with 95% humidity. The PDC lines were cultured according to standard operating procedures established by the NCI PDMR. All PDCs were thawed and cultured in Matrigel-coated flasks prepared with a working solution of 1X Ham's F-12 nutrient mix, without supplementation (Invitrogen, Waltham, MA, cat. 11765054), 100 U/mL penicillin-streptomycin (Invitrogen, cat. 15140122), and 2.5% Matrigel (Corning Inc., Corning, NY, cat. 354248) for the first three passages. The 362531-283-R-J2-PDC and 782815-120-R-J1-PDC lines were cultured in 6C/Colon 1B media, which includes advanced DMEM/F-12 (Thermo Fisher Scientific, cat. 12634028), 10 mM HEPES (Thermo Fisher Scientific, cat. 15630080), 1X GlutaMAX supplement (Thermo Fisher Scientific, cat. 35050061), 0.1 mg/mL primocin (InvivoGen, San Diego, CA, cat. ant-pm-2), 10% defined fetal bovine serum, heat inactivated (HyClone Laboratories Inc., Logan, UT, cat. SH30070.03HI), 50% L-WRN conditioned media (ATCC, cat. CRL-3276), 1.25 mM N-Acetyl-L-cysteine (Sigma-Aldrich, cat. A9165), 10 mM nicotinamide (Sigma-Aldrich, cat. N0636), 1X B-27 supplement (Thermo Fisher Scientific, cat. 17504044), 1X N-2 supplement (Thermo Fisher Scientific, cat. 17502048), 50 ng/mL human EGF (Thermo Fisher Scientific, cat. PHG0311), and 10 microM Y-27632 dihydrochloride (Tocris Bioscience, cat. 1254). The K12877-001-R-J1-PDC line was cultured in 6I media, which includes all 6C/Colon 1B media plus 10 ng/mL human FGF-10 (PeproTech, cat. 100-26), 1 ng/mL human FGF-2 (PeproTech, cat. 100-18B), 1 µM prostaglandin E2 (Tocris Bioscience, cat. 2296), […] hydrocortisone (Sigma-Aldrich, cat. H4001), and […] bovine insulin (Sigma-Aldrich, cat. I6634). The K86415-001-R-J1-PDC line was cultured in 6D media, which includes all 6C/Colon 1B media components minus the L-WRN conditioned media. The 485176-168-R4-J1-PDC was cultured in PANC media, which includes all 6C/Colon 1B media plus 100 ng/mL human FGF-10 (PeproTech, cat. 100-26), 500 nM SB-431542 (Selleckchem, cat. S1067), and 10 nM gastrin (Tocris Bioscience, cat. 3006). […]
# [1] = compound alone, run of 06/10/2024
# [2] = compound alone, run of 05/20/2024
# 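Further: spheroids exposed to agents for seven days before viability readout.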
# 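Wherever viability, T/C is given: 100% = DMSO vehicle control viability.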
IC50 (curve of compound),Structure (SMILES),"viability, T/C (compound 0.0316 µM)","viability, T/C (compound 0.1 µM)","viability, T/C (compound 0.316 µM)","viability, T/C (compound 1 µM)","viability, T/C (compound 3.16 µM)","viability, T/C (compound 10 µM)","viability, T/C (compound 0.00316 µM)","viability, T/C (compound 0.01 µM)",other results
,C#Cc1c(F)ccc2cc(O)cc(-c3ncc4c(N5CC6CCC(C5)N6)nc(OCC56CCCN5CC(F)C6)nc4c3F)c12 (stereo unspecified),107% [middle of 8 runs],107% [middle of 8 runs],110% [middle of 8 runs],108% [middle of 8 runs],102% [middle of 8 runs],70.6% [middle of 8 runs],,,IC50 [1]: > 10 µM
> 1 µM,C=CC(=O)N1CCN(c2nc(OCC3CCCN3C)nc3c(F)c(-c4nc(N)cc(C)c4C(F)(F)F)c(Cl)cc23)C(C)C1 (stereo unspecified),99.4% [middle of 12 runs],102% [middle of 12 runs],104% [middle of 12 runs],103% [middle of 12 runs],,,100% [middle of 12 runs],102% [middle of 12 runs],IC50 [1]: > 1 µM
> 1 µM,C=CC(=O)Nc1cc(Nc2nccc(-c3cn(C)c4ccccc34)n2)c(OC)cc1N(C)CCN(C)C,103% [middle of 4 runs],105% [middle of 4 runs],109% [middle of 4 runs],74.3% [middle of 4 runs],,,96.5% [middle of 4 runs],100% (2×) and 96% and 97.4%,
,CC(C)NCC(C(=O)N1CCN(c2ncnc3c2C(C)CC3O)CC1)c1ccc(Cl)cc1 (stereo unspecified),105% [middle of 4 runs],100% [middle of 4 runs],100% [middle of 4 runs],101% [middle of 4 runs],95.3% (2×) and 87.8% and 95.7%,49.3% [middle of 4 runs],,,
> 0.1 µM,CC(C)n1nc(-c2ccc3oc(N)nc3c2)c2c(N)ncnc21,110% [middle of 4 runs],75.2% [middle of 4 runs],,,,,94.6% and 107% (2×) and 98%,107% [middle of 4 runs],"viability, T/C (compound 0.000316 µM): 99.5% (2×) and 101% and 97.1%; viability, T/C (compound 0.001 µM): 105% [middle of 4 runs]"
> 10 µM,CC(Nc1ccc2c(c1)OCCn1cc(N3C(=O)OCC3C(F)F)nc1-2)C(N)=O (stereo unspecified),111% [middle of 4 runs],108% [middle of 4 runs],110% [middle of 4 runs],107% [middle of 4 runs],102% [middle of 4 runs],83.5% [middle of 4 runs],,,
20.3 nM [middle of 4 runs],CC1(C)CCC(Nc2ncc(C(F)(F)F)c(-c3c[nH]c4c(P(C)(C)=O)c(C#N)ccc34)n2)CN1 (stereo unspecified),,,,,,,,,"viability, T/C (compound 0.000949 µM): 98.8% [middle of 4 runs]; viability, T/C (compound 0.003 µM): 101% [middle of 4 runs]; viability, T/C (compound 0.00949 µM): 66.1% [middle of 4 runs]; viability, T/C (compound 0.03 µM): 40.8% [middle of 4 runs]; viability, T/C (compound 0.0949 µM): 37% [middle of 4 runs]; viability, T/C (compound 0.3 µM): 35.2% [middle of 4 runs]"
1.23 µM [middle of 4 runs],CC1(O)CCCC1n1c(=O)c(C(F)F)cc2cnc(NC3CCN(S(C)(=O)=O)CC3)nc21 (stereo unspecified),112% [middle of 4 runs],103% [middle of 4 runs],59.3% [middle of 4 runs],56.1% [middle of 4 runs],48.9% [middle of 4 runs],2.6% [middle of 4 runs],,,
1.8 µM [middle of 4 runs],CCC(CC)c1cc(NC2CCC(N)C2)n2nccc2n1 (stereo unspecified),109% [middle of 4 runs],99.7% and 102% (2×) and 93.3%,93.8% [middle of 4 runs],107% [middle of 4 runs],0.63% [middle of 4 runs],0.37% [middle of 4 runs],,,
> 1 µM,CCN1CCN(Cc2ccc(Nc3ncc(F)c(-c4cc(F)c5nc(C)n(C(C)C)c5c4)n3)nc2)CC1,113% [middle of 4 runs],117% (3×) and 120%,,64.1% (2×) and 70.2% and 59.4%,,,,104% [middle of 4 runs],
,CCc1c2c(nc3ccc(O)cc13)-c1cc3c(c(=O)n1C2)COC(=O)[C@]3(O)CC,,,,,,,,,"viability, T/C (compound 0.000949 µM): 104% [middle of 4 runs]; viability, T/C (compound 0.003 µM): 105% [middle of 4 runs]; viability, T/C (compound 0.03 µM): 37.2% [middle of 4 runs]; viability, T/C (compound 0.0949 µM): 24.3% [middle of 4 runs]; viability, T/C (compound 0.3 µM): 16.9% [middle of 4 runs]"
,CCn1c(-c2cc(N3CCN(C)CC3)cnc2C(C)OC)c2c3cc(ccc31)-c1csc(n1)CC(NC(=O)C1CC1C)C(=O)N1CCCC(N1)C(=O)OCC(C)(C)C2 (stereo unspecified),,,,,,,,,"viability, T/C (compound 0.000949 µM): 107% [middle of 8 runs]; viability, T/C (compound 0.003 µM): 106% [middle of 8 runs]; viability, T/C (compound 0.00949 µM): 81.7% [middle of 8 runs]; viability, T/C (compound 0.03 µM): 53.7% [middle of 8 runs]; viability, T/C (compound 0.0949 µM): 40.6% [middle of 8 runs]; viability, T/C (compound 0.3 µM): 37.5% [middle of 8 runs]; IC50 [2]: 41.2 nM [middle of 8 runs]"
,CCn1c(-c2cccnc2C(C)OC)c2c3cc(ccc31)N1CCOC(CC(NC(=O)C(C(C)C)N(C)C(=O)C3(F)CCN(C(=O)C#CC(C)(C)N(C)C)CC3)C(=O)N3CCCC(N3)C(=O)OCC(C)(C)C2)C1 (stereo unspecified),,,,,,,,,"viability, T/C (compound 0.000949 µM): 102% [middle of 8 runs]; viability, T/C (compound 0.003 µM): 102% [middle of 8 runs]; viability, T/C (compound 0.00949 µM): 107% [middle of 8 runs]; viability, T/C (compound 0.03 µM): 106% [middle of 8 runs]; viability, T/C (compound 0.0949 µM): 110% [middle of 8 runs]; viability, T/C (compound 0.3 µM): 109% [middle of 8 runs]; IC50 [2]: > 0.3 µM"
> 10 µM and 8.87 µM,C[C@@H](NC(=O)c1ncnc(N)c1Cl)c1ncc(C(=O)Nc2cc(C(F)(F)F)c(Cl)cn2)s1,102% [middle of 4 runs],110% [middle of 4 runs],112% [middle of 4 runs],124% and 105% and 112% (2×),,,,,
9.77 nM [middle of 4 runs],Nc1ccn(C2OC(CO)C(O)C2(F)F)c(=O)n1 (stereo unspecified),29.4% [middle of 4 runs],16.2% [middle of 4 runs],15.4% [middle of 4 runs],15.7% [middle of 4 runs],,,101% [middle of 4 runs],46.9% [middle of 4 runs],
78 nM [middle of 4 runs],O=C(c1ccc(F)c(F)c1Nc1ccc(I)cc1F)N1CC(O)([C@@H]2CCCCN2)C1,81.5% [middle of 4 runs],41.5% [middle of 4 runs],19.9% [middle of 4 runs],5.56% [middle of 4 runs],,,111% [middle of 4 runs],102% (2×) and 95.7% and 113%,
